Measured values: US20260327224A1, “SUBSTITUTED PYRIDOTRIAZOLE COMPOUND, AND PREPARATION METHOD THEREFOR AND USE THEREOF” (ORIGIANT PHARMACEUTICAL CO., LTD., priority 2023, published 2026)

Test system: HT-29 cells (colon cancer cells)
Experiment: In vitro assay for protection of HT-29 cells from necroptosis (TNFα/Smac mimetic/Z-VAD-FMK, CCK-8)
Format: cell-based
Settings: Homo sapiens, Protective Activity Against Necroptosis, TNFα/Smac mimetic/Z-VAD-FMK induced, 24 h
Description: Z′=1−3(SDmin+SDmax)/(AVEmax−AVEmin) • wherein: • Min is the positive control Data, and Max is the negative control DMSO Data. • SD is the standard deviation, and AVE is the average. In Vitro Assay for Protection of HT-29 Cells from Necroptosis:
1) Experimental Materials
DMEM medium was purchased from Gibco; penicillin-streptomycin was purchased from Hyclone; TNFα was purchased from Peprotech; Smac mimetic and Z-VAD-FMK were purchased from Selleck; and CCK-8 was purchased from Medchem Express.
HT-29 cells (colon cancer cells) were cultured in DMEM+10% FBS+penicillin/streptomycin. For the experiment, HT-29 cells in the logarithmic phase were collected and seeded into 96-well plates at a specific density (typically 8×10^3 cells/well for adherent cells). The cells were cultured overnight in an incubator at 37° C. with 5% CO2. On the following day, the test compound was diluted with culture medium to the corresponding concentrations and added into the 96-well plate, with 3 replicate wells for each sample. A solvent control group and a blank control group containing only culture medium were set simultaneously. The spiked cells were induced with a combination of TNFα/Smac mimetic/Z-VAD-FMK for 24 h. Subsequently, 10 μL of CCK8 solution was added to each well, and the cells were incubated in an incubator for 1-3 h. Absorbance was measured at […] using a microplate reader, and the cell necrosis protection rate of the drug was calculated using the following formula:
Cell necrosis protection rate=[(X−C0)/(C−C0)]×100% • where C, C0, and X represent the average absorbance values of the solvent control group, the blank control group, and the drug treatment group, respectively. Finally, a cell viability curve was fitted using Graphpad Prism 5.0 software, and the EC50 value of the test compound for inhibiting necroptosis was calculated.

SMILES | EC50 [nM]
Cn1cc(C(=O)Nc2nc3cc(-c4ccc5c(c4)c(C(=O)N[C@@H](CF)c4ccc(F)cc4)nn5C)ccn3n2)cn1 [Compound 187] | < 1
CC(c1ccc(F)cc1)n1cnc(-c2cn(C)c3ccc(-c4ccn5nc(NC(=O)c6cnn(C)c6)nc5c4)cc23)n1 (centres unmarked) [Compound 208] | 100 to 1000
C[C@H](NC(=O)c1cn(C)c2ccc(-c3ccn4nc(NC(=O)CN5CCOCC5)nc4c3)cc12)C(C)(C)C [Compound 90] | 1000 to 10000
C[C@H](NC(=O)c1cn(C)c2ccc(-c3ccn4nc(NC(=O)CN5CCC(O)(O)CC5)nc4c3)cc12)c1ccc(F)cc1 [Compound 5] | < 1
CCn1cc(C(=O)N[C@@H](C)c2ccc(F)cc2)c2cc(-c3ccn4nc(NC(=O)CN5CCOCC5)nc4c3)ccc21 [Compound 8] | < 1
C[C@H](NC(=O)c1cn(C)c2ccc(-c3ccn4nc(NC(=O)CNC5CCOC5)nc4c3)cc12)c1ccc(F)cc1 (some centres unmarked) [Compound 77] | < 1
Cn1cc(C(=O)N2CCOC[C@@H]2c2ccc(F)cc2)c2cc(-c3ccn4nc(NC(=O)[C@H]5CCCO5)nc4c3)ccc21 [Compound 150] | < 1
CO[C@@H](C)C(=O)Nc1nc2cc(-c3ccc4c(c3)c(C(=O)N[C@H](c3ccc(F)cc3)C(F)F)cn4C)ccn2n1 [Compound 165] | < 1
COCCOCCOCC(=O)Nc1nc2cc(-c3ccc4c(c3)c(C(=O)N[C@@H](C)c3ccc(F)cc3)cn4C)ccn2n1 [Compound 25] | < 1
C[C@H](NC(=O)c1cn(C)c2ccc(-c3ccn4nc(NC(=O)[C@@H]5CCC(=O)N5)nc4c3)cc12)c1ccc(F)cc1 [Compound 14] | < 1
Cn1cc(C(=O)N[C@@H](CF)c2ccc(F)cc2)c2cc(-c3ccn4nc(NC(=O)CN5CCCCC5)nc4c3)ccc21 [Compound 96] | < 1
Cn1cc(C(=O)N2CC(F)(F)CC2c2ccc(F)cc2)c2cc(-c3ccn4nc(NC(=O)C5CCOC5)nc4c3)ccc21 (centres unmarked) [Compound 159] | < 1
CN(C(=O)c1cn(C)c2ccc(-c3ccn4nc(NC(=O)C5CC5)nc4c3)cc12)[C@H]1CCc2cc(F)ccc21 [Compound 205] | 1 to 10
Cn1cc(C(=O)N[C@@H](CF)c2cccc(F)c2)c2cc(-c3ccn4nc(NC(=O)[C@H]5CCCO5)nc4c3)ccc21 [Compound 183] | < 1
Cn1cc(C(=O)N[C@H]2CCc3cc(C#N)ccc32)c2cc(-c3ccn4nc(NC(=O)C5CC5)nc4c3)ccc21 [Compound 130] | 1 to 10
C[C@H](NC(=O)c1cn(C)c2ccc(-c3ccn4nc(NC(=O)CN5C6CC7CC(C6)C(O)C5C7)nc4c3)cc12)c1ccc(F)cc1 (some centres unmarked) [Compound 59] | < 1
C[C@H](NC(=O)c1cn(C)c2ccc(-c3ccn4nc(NC(=O)CN5CC[C@H](CO)C5)nc4c3)cc12)c1ccc(F)cc1 [Compound 61] | 1 to 10
C[C@H](NC(=O)c1cn(C)c2ccc(-c3ccn4nc(NC(=O)CN5CC(F)(F)C5)nc4c3)cc12)c1ccc(F)cc1 [Compound 42] | < 1
C[C@@H]1CN(CC(=O)Nc2nc3cc(-c4ccc5c(c4)c(C(=O)N[C@@H](C)c4ccc(Cl)cc4)cn5C)ccn3n2)C[C@H](C)O1 [Compound 85] | < 1

SMILES | EC50 [nM]
CCn1cc(C(=O)N[C@@H](CF)c2ccc(F)cc2)c2cc(-c3ccn4nc(NC(=O)N5CCOCC5)nc4c3)ccc21 [Compound 200] | < 1
C[C@H](NC(=O)c1cn(C)c2ccc(-c3ccn4nc(NC(=O)c5cnn(C)c5)nc4c3)cc12)C(C)(C)C [Compound 91] | 1000 to 10000
C[C@H](NC(=O)c1cn(C)c2ccc(-c3ccn4nc(NC(=O)CN5CCS(=O)(=O)CC5)nc4c3)cc12)c1ccc(F)cc1 [Compound 28] | 1 to 10
Cn1cc(C(=O)N[C@@H](CF)c2ccc(F)cc2)c2cc(-c3ccn4nc(NC(=O)C5(C)CCC5)nc4c3)ccc21 [Compound 105] | 10 to 100
COCCNCC(=O)Nc1nc2cc(-c3ccc4c(c3)c(C(=O)N[C@@H](C)c3ccc(F)cc3)cn4C)ccn2n1 [Compound 68] | < 1
C[C@H](NC(=O)c1nn(C)c2ccc(-c3ccn4nc(NC(=O)CN5CCOCC5)nc4c3)cc12)c1ccc(F)cc1 [Compound 196] | < 1
C[C@H](NC(=O)c1cn(C)c2ccc(-c3ccn4nc(NC(=O)CN5CCN(CCO)CC5)nc4c3)cc12)c1ccc(F)cc1 [Compound 70] | < 1
C[C@H](NC(=O)c1cn(C)c2ccc(-c3ccn4nc(NC(=O)CN5CCOC[C@@H]5CO)nc4c3)cc12)c1ccc(F)cc1 [Compound 35] | < 1
C[C@H](NC(=O)c1cn(C)c2ccc(-c3ccn4nc(NC(=O)C5CC5)nc4c3)cc12)C(C)(C)C [Compound 93] | 100 to 1000
Cn1cc(C2=NC(c3ccc(F)cc3)CO2)c2cc(-c3ccn4nc(NC(=O)C5CC5F)nc4c3)ccc21 (centres unmarked) [Compound 211] | 10 to 100
Cn1cc(C(=O)N2CCOC[C@@H]2c2ccc(F)cc2)c2cc(-c3ccn4nc(NC(=O)C5CC5)nc4c3)ccc21 [Compound 151] | < 1
Cn1cc(C(=O)Nc2nc3cc(-c4ccc5c(c4)c(C(=O)N4CCOC[C@@H]4c4ccc(F)cc4)cn5C)ccn3n2)cn1 [Compound 149] | < 1
CC[C@H](NC(=O)c1cn(C)c2ccc(-c3ccn4nc(NC(=O)CN5CCOCC5)nc4c3)cc12)c1ccc(F)cc1 [Compound 197] | < 1
C[C@H](NC(=O)c1cn(C)c2ccc(-c3ccn4nc(NC(=O)CN5CC6CC5CO6)nc4c3)cc12)c1ccc(Cl)cc1 (some centres unmarked) [Compound 79] | < 1
CC(c1ccc(F)cc1)n1cnc(-c2cn(C)c3ccc(-c4ccn5nc(NC(=O)C6CC6)nc5c4)cc23)n1 (centres unmarked) [Compound 210] | 100 to 1000
C[C@H](NC(=O)c1cn(C)c2ccc(-c3ccn4nc(NC(=O)CN5CCOCC5C(=O)O)nc4c3)cc12)c1ccc(F)cc1 (some centres unmarked) [Compound 33] | 1000 to 10000
C[C@H](NC(=O)c1nn(C)c2ccc(-c3ccn4nc(NC(=O)C5CC5)nc4c3)cc12)c1ccc(F)cc1 [Compound 192] | < 1
C[C@H](NC(=O)c1cn(C)c2ccc(-c3ccn4nc(NC(=O)[C@H]5CCCO5)nc4c3)cc12)c1cccc(F)c1 [Compound 119] | < 1
COCC(=O)Nc1nc2cc(-c3ccc4c(c3)c(C(=O)N[C@H](c3ccc(F)cc3)C(F)F)cn4C)ccn2n1 [Compound 166] | < 1

SMILES | EC50 [nM]
C[C@H](NC(=O)c1cn(C)c2ccc(-c3ccn4nc(NC(=O)[C@H]5CCCO5)nc4c3)cc12)c1ccc(F)cc1 [Compound 117] | < 1
C[C@H](NC(=O)c1cn(C)c2ccc(-c3ccn4nc(NC(=O)CN5CCOCC5)nc4c3)cc12)c1ccc(Cl)cc1 [Compound 83] | < 1
CN1CCN(C(=O)Nc2nc3cc(-c4ccc5c(c4)c(C(=O)N[C@@H](CF)c4ccc(F)cc4)cn5C)ccn3n2)CC1 [Compound 95] | < 1
C[C@H](NC(=O)c1cn(C)c2ccc(-c3ccn4nc(NC(=O)C(=O)N5CCOCC5)nc4c3)cc12)c1ccc(F)cc1 [Compound 9] | < 1
Cn1cc(C(=O)N[C@@H](CF)c2ccc(F)cc2)c2cc(-c3ccn4nc(NC(=O)C#N)nc4c3)ccc21 [Compound 102] | < 1
C[C@H](NC(=O)c1cn(C)c2ccc(-c3ccn4nc(NC(=O)CN5CCOCC5)nc4c3)cc12)c1ccc(F)cc1 [Compound 75] | < 1
CC(C(=O)Nc1cn(C)c2ccc(-c3ccn4nc(NC(=O)[C@H]5CCCO5)nc4c3)cc12)c1ccc(F)cc1 (some centres unmarked) [Compound 178] | 100 to 1000
C[C@H](NC(=O)c1cn(C)c2ccc(-c3ccn4nc(NC(=O)CN5CCC(C#N)CC5)nc4c3)cc12)c1ccc(F)cc1 [Compound 23] | < 1
C[C@H](NC(=O)c1cn(C)c2ccc(-c3ccn4nc(NC(=O)CNCCOCCO)nc4c3)cc12)c1ccc(F)cc1 [Compound 65] | < 1
C[C@H](NC(=O)c1cn(C)c2ccc(-c3ccn4nc(NC(=O)CN5CC[C@@H](F)C5)nc4c3)cc12)c1ccc(F)cc1 [Compound 20] | < 1
C[C@H](NC(=O)c1cn(C)c2ccc(-c3ccn4nc(NC(=O)c5ccnc(F)c5)nc4c3)cc12)c1ccc(F)cc1 [Compound 115] | < 1
Cn1cc(C(=O)N[C@H]2CCCc3cc(F)ccc32)c2cc(-c3ccn4nc(NC(=O)[C@@H]5CCCO5)nc4c3)ccc21 [Compound 139] | 1 to 10
Cn1cc(C(=O)N[C@H]2CCCc3ccc(F)cc32)c2cc(-c3ccn4nc(NC(=O)[C@H]5CCCO5)nc4c3)ccc21 [Compound 146] | 10 to 100
C[C@H](NC(=O)c1cn(C)c2ccc(-c3ccn4nc(NC(=O)CN5CCOC[C@@H]5C)nc4c3)cc12)c1ccc(F)cc1 [Compound 60] | < 1
C[C@H](NC(=O)c1cn(C)c2ccc(-c3ccn4nc(NC(=O)CN5CCC[C@H]5C(=O)O)nc4c3)cc12)c1ccc(F)cc1 [Compound 37] | 1 to 10
Cn1cc(C(=O)N2CCC[C@H]2c2ccc(F)cc2)c2cc(-c3ccn4nc(NC(=O)C5CCOC5)nc4c3)ccc21 (some centres unmarked) [Compound 186] | < 1
C[C@H](NC(=O)c1cn(C)c2ccc(-c3ccn4nc(NC(=O)CN5CCOC(C)(C)C5)nc4c3)cc12)c1ccc(F)cc1 [Compound 18] | < 1
CC(=O)Nc1nc2cc(-c3ccc4c(c3)c(C(=O)NC3CCc5cc(F)ccc53)cn4C)ccn2n1 (stereo in doubt) [Compound 127] | 1000 to 10000
